According to patent US11793816B2, “Methods for enhancing cytotoxic cancer therapy through inhibition of ATG4B” (Northwestern University, priority 2019, dated 2023):

Assays:
[1] = system: GSC JK83 orthotopic xenografts; experiment: GSC JK83 orthotopic brain tumor xenograft model (survival, BLI, tissue staining); format: in vivo, mice
Description: FIG. 7. NSC enhance anticancer efficacy of AZD2014 in a patient-derived GSC xenograft model. […] Treatments were started at one week post-implantation. Bioluminescent (BLI) images were taken after the last treatment, and representative images are shown. Scale bar, photons/sec/cm2/steradian. (B) Kaplan-Meier of mice bearing GSC JK83 orthotopic xenografts with indicated treatments. (C) The brains of mice bearing orthotopic xenografts with indicated treatments were collected for immunohistochemical evaluation using indicating antibody. *P<0.05, **p<0.01, […]. Data are representative from three independent experiments with similar results.
Frozen brain tissue sections with GBM xenografts were dried and then fixed in were fixed in 4% paraformaldehyde (PFA) in PBS for 5 minutes. Tissue sections were blocked with AquaBlock (East Coast Bio, North Berwick, Me.) for an hour and then were probed with appropriate primary antibodies 4° C. overnight. Tissue sections were incubated with Alexa 488 or 594 labelled secondary antibodies (1:200) and DAPI-containing mounting solution Vectashield (Vector Laboratories), and representative images were photographed using a Nikon inverted microscope Eclipse Ti-U equipped with a digital camera.
To determine whether the enhancement of AZD2014 therapeutic efficiency by combination with NSC measured in vitro extends to an orthotopic model, GSC JK83 glioma spheres were employed to initiate intracerebral xenografts in mice.

[2] = system: GSC83 and GBM43 cells; experiment: Annexin V/propidium iodide flow cytometry after NSC, IR, TMZ alone or combined; format: cell-based; conditions: NSC combined with IR or/and TMZ vs single treatments, 48 hours
[3] = system: GSC83 and GBM43 cells; experiment: Cell viability / proliferation after NSC, IR, TMZ alone or combined; format: cell-based; conditions: NSC combined with IR or/and TMZ vs single treatments, 72 hours
[4] = system: LC3B puncta in GSC M83 and JK83 cells; experiment: LC3B immunofluorescence (puncta, autophagosomes); format: cell-based; conditions: NSC in cells treated with AZD2014
Experimental: FIG. 6. NSC enhanced the cytotoxicity of a mTORC1/2 inhibitor AZD2014 in GSCs. (A) GSC M83 and JK83 were exposed to DMSO control vs AZD2014 vs NSCs vs AZD2014 in combination with NSC for 72 hr. Cells were collected for immunoblot analysis using indicated antibodies. (B) Immunofluorescence analyses for LC3B puncta in GSC M83 and JK83 cells with indicated treatments. (C and D) GSC M83 and JK83 and/or neural progenitor cells (NPC) were treated as indicated in (A), cell viability was tested at 72 h after treatment (C), and cell apoptosis was measured by Annexin V FACS assay 48 h after treatment. Data are representative from three independent experiments with similar results.
Immunofluorescent staining. GSCs were seeded onto LabTek CC2-treated tissue culture slides (Thermo Fisher) and cultured for 24 hours. Cells were then fixed with 4% formaldehyde (Fisher) for 15 min, and permeabilized with 0.1% Triton X-100, and then blocked with AquaBlock (East Coast Bio, North Berwick, Me.) for 60 minutes. The slides were incubated with indicated primary antibodies according to the manufacturer's instructions. After being washed for three times with PBS-T, cells were incubated with secondary antibody (Alexa 488 and 594, 1:200) and DAPI-containing mounting solution Vectashield (Vector Laboratories). Cells were analyzed on a Nikon inverted microscope Eclipse Ti-U equipped with a digital camera. […]

[5] = Toxicity evaluation of NSC185058 in mouse organs (behavior, hematoxylin and eosin staining); format: in vivo, mice; conditions: for pathologic analysis of vital organs (hematoxylin and eosin): 150 mg/kg Monday, brain, heart, liver, lung, kidney, spleen, one week after last dosing
Experimental: FIG. 1. NSC185058 (NSC) effectively distributes to the plasma, the brain, and the liver with minimal toxicity in mice. (A) to (C) Mice were dosed with peanut oil vehicle or ATG4B antagonists NSC185058 at doses of 10 or 50 mg/kg body weight. Plasma, the brain, and the liver tissues were collected at the indicated time points. (A) Total concentrations of the NSC compound in plasma were measured by LC-MS/MS. The PK parameter of NSC in plasma was determined. (B) NSC levels in plasma were determined form 5 min to 24 hr post dosing. The chemical structure of NSC was shown. (C) NSC levels were determined in the plasma, the brain, and the liver tissues at 0.5 and 8 hr post dosing. (D) Hematoxylin and eosin stained section s of indicated organs that were treated with NSC (150 mg/kg body weight) or vehicle on Monday, Wednesday, and Friday for three weeks. Scale bars, 50 μm. n=3 mice/group/time point.
Mice were randomized into two groups before the start of experiment. Animals received peanut oil vehicle (control) or ATG4B antagonists NSC185058 (150 mg/kg body weight) on Monday, Wednesday, and Friday for tow to three weeks. Then, mouse tissues and organs including the liver, the kidney, the lung, the spleen, the heart, and the brain were collected after one week post last dose. All specimens were immediately formalin-fixed for 24-36 hrs and then embedded in paraffin embedded. Five micrometer-thick serial sections were obtained from each samples for standard hematoxylin and eosin staining.
The NSC was administered at the dose of 10 or 50 mg/kg body weight in group of three mice. At the indicated time points spanning a 24 hrs period ([…], 0.5, 1, 2, 4, 8, and 24 hour), the plasma, the brain, and the liver tissues were collected. Plasmid and extracts from the brain and the liver were analyzed by LC-MS/MS using method developed at the Illinois Institute of Technology Research Institute (IITRI). […] Plasma exposure appears to increase beyond the hinge in dose for the dosing range tested. The elimination half-life was 2 and 4 for the 10 and 50 mg/kg dose, respectively. […] To examine whether NSC is tolerated in mouse, we investigated the effect induced by NSC in mouse behavior or by pathologic analysis of vital organs including the brain, the heart, the liver, the lung, the kidney, and the spleen. Mice underwent treatments on Monday, Wednesday, and Friday for three week with either peanut oil (vehicle) or NSC (150 mg/kg body weight) in peanut oil. […] Animal tissues were collected one week after the last dosing and subject for hematoxylin and eosin staining.

[6] = system: LC3B lipidation and p62/SQSTM1 in GSCs and GBM cells; experiment: Immunoblot of autophagy markers after NSC, IR, TMZ; format: cell-based; conditions: NSC with IR or/and TMZ
Experimental: (A) GBM stem-like cells, GSCTS576, and patient-derived xenograft cells, GBM44, were treated with NSC, IR or/and TMZ at the indicated concentrations and combinations for 72 hours. Thereafter, cells were analyzed for cellular viability. Data are shown as mean±SD, n=3 of biological replicates. #, Combination vs. TMZ, P<0.01; &, Combination vs. IR, P<0.01; *, Combination vs. NSC, P<0.01 (B) GSCTS576 and GBM44 cells were treated with NSC, IR or and TMZ with indicated concentration or does for 48 hours, stained with Annexin V/PI, and analyzed by flow cytometry; n=3 biological replicates. Data are shown as mean±SD. #, Combination vs. TMZ, P<0.01; &, Combination vs. IR, P<0.01; *, Combination vs. NSC, P<0.01. (C) TS576 GSCs and GBM44 with indicated treatments were collected and analyzed for levels of the indicated proteins. […]
To determine the effect of combination treatment with NSC185058 and irradiation (IR) or/and TMZ, stem-like glioma cells (GSC83) and patient-derived xenograft GBM (GBM43) cells, were treated with NSC185058, TMZ, IR or the combination of two or three treatments and examined cellular proliferation modulation. […] Toward this end, we analyzed protein expression of autophagy marker protein LC3B and p62/SQSTM1, an established autophagy substrate, DNA damage indicator γH2AFX/γH2AX and apoptosis indicator cleaved CASP3/caspase-3 in both tested cell lines.

S=C(Nc1ccccn1)c1ccccn1 [NSC185058, N-pyridin-2-yl-pyridine-2-carbothioamide]
autophagic flux (LC3B puncta staining) in brain tumor xenografts ([1]; NSC (50 mg/kg) alone): slight impact on autophagic flux | AZD2014-induced autophagy response in the brain ([1]; NSC (50 mg/kg) in the combination protocol): strongly attenuated AZD2014-induced autophagy response | mouse survival ([1]; NSC (100 mg/kg), AZD2014 (50 mg/kg), alone or combined, vs control): modest but significant effects on mouse survival | effect of NSC on inhibition efficiency of AZD2014 on xenograft growth ([1]; combination treatment): enhanced the inhibition efficiency of AZD2014 | apoptotic cells (Annexin V/PI) [2]: more apoptotic cells than single treatments | tumor cell proliferation [3]: more reduction in tumor cell proliferation cells than single treatments | autophagosomes number (LC3 B immunofluorescence) [4]: markedly decreased | pathologic analysis of vital organs (hematoxylin and eosin) ([5]; Wednesday, Friday for three weeks): no relevant tissue toxicity | pathologic analysis of vital organs (hematoxylin and eosin) ([5]; Wednesday, Friday for three weeks, listed as NSC): no morphological changes or abnormal findings | mouse behavior ([5]; 150 mg/kg in peanut oil, Monday, Wednesday, Friday for three weeks): did not display behavioral changes | toxic effects on the animals ([5]; mice): did not display any toxic effects | sensitization to IR or/and TMZ (LC3B lipidation, p62) [6]: sensitized the tested cells to IR or/and TMZ by suppressing LC3B lipidation and increasing p62
